Results as given in patent US9815839B2, “N-(1-(substituted-phenyl)ethyl)-9H-purin-6-amines as PI3K inhibitors” (Incyte Corporation, priority 2010, dated 2017).
Counter-ions that a name gives are not always drawn.

Key:
PI3Kδ (p110δ/p85α) = molecular target: T1, PI3Kδ (p110δ/p85α) (Homo sapiens, UniProt O00329); experiment: PI3Kδ scintillation proximity assay; format: biochemical; settings: 20 μM ATP, 4 nM PI3Kδ
T1 construct: purchased Millipore (Bedford, Mass.)
Procedure, shortened: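 p110δ/p85α (4 nM) phosphorylated 20 μM PIP2 with 20 μM ATP plus [γ-33P]ATP in 20 mM MOPS pH 6.7, 10 mM MgCl2, 5 mM DTT, 0.03% CHAPS, 0.5% DMSO, 210 min at room temperature. EDTA quench, WGA SPA bead capture, scintillation counting; IC50 from log-concentration fit.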

[1] = test system: Pfeiffer cell line (diffuse large B cell lymphoma); experiment: Pfeiffer cell proliferation assay; format: cell-based; settings: Homo sapiens, Pfeiffer, Pfeiffer cells, 3-4 days plus 12 hours [3H]-thymidine incorporation
Description: Example C: Pfeiffer Cell Proliferation Assay
Pfeiffer cell line (diffuse large B cell lymphoma) was purchased from ATCC (Manassas, Va.) and maintained in the culture medium recommended (RPMI and 10% FBS). To measure the anti-proliferation activity of the compounds, the Pfeiffer cells were plated with the culture medium (2×10^3 cells/well/per 200 μl) into 96-well ultra-low binding plates (Corning, Corning, N.Y.), in the presence or absence of a concentration range of test compounds. After 3-4 days, [^3H]-thymidine (1 μCi/well) (PerkinElmer, Boston, Mass.) in PBS was then added to the cell culture for an additional 12 hours before the incorporated radioactivity was separated by filtration with water through GF/B filters (Packard Bioscience, Meridenj, Conn.) and measured by liquid scintillation counting with a TopCount (Packard Bioscience).

T1 sequence (O00329 whole entry, species assumed): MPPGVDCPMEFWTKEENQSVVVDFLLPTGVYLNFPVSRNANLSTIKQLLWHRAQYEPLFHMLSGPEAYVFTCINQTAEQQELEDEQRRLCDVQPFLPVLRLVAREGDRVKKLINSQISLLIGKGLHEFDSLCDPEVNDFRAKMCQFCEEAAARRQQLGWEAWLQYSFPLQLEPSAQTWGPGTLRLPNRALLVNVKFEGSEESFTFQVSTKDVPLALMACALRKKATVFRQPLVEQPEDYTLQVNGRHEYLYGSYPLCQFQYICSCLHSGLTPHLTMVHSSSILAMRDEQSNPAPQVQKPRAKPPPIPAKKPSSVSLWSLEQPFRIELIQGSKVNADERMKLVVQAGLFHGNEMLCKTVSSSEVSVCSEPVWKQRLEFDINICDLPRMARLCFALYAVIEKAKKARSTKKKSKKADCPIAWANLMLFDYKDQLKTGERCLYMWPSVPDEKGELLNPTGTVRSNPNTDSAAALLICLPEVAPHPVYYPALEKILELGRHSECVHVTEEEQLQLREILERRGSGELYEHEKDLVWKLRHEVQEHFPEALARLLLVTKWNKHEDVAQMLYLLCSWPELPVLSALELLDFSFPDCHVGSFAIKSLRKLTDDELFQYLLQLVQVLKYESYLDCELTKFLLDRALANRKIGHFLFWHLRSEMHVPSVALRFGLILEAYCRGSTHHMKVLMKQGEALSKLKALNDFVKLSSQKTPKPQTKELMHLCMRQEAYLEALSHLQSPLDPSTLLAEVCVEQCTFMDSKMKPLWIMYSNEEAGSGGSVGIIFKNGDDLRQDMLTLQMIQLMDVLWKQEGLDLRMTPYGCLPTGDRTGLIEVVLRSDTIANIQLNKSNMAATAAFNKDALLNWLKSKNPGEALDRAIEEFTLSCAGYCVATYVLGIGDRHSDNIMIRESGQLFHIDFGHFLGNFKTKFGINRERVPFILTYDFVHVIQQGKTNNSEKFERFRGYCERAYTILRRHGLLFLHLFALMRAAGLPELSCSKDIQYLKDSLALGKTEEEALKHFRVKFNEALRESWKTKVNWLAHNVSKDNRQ
T1 sequence (P27986 whole entry partner, species assumed): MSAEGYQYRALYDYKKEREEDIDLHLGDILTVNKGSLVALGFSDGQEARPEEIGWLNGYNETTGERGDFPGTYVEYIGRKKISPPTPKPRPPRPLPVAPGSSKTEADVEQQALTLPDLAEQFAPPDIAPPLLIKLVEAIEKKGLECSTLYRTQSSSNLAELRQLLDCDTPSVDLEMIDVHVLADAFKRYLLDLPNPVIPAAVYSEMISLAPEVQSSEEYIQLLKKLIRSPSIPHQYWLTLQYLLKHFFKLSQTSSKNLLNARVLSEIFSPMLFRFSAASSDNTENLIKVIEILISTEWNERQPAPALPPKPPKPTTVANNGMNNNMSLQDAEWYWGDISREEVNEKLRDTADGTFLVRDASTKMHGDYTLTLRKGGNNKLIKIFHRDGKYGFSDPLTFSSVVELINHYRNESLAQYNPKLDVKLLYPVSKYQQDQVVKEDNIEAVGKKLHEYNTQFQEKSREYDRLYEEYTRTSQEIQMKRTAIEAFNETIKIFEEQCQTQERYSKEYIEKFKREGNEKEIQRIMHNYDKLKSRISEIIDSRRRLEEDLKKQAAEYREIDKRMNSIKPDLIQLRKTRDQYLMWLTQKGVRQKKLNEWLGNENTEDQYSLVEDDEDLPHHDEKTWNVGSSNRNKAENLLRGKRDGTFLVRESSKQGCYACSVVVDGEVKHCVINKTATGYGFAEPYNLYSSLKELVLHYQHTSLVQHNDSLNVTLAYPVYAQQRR

| SMILES | IC50 (PI3Kδ (p110δ/p85α)) [nM] | IC50 [1] [nM] |
| --- | --- | --- |
| COc1c(C(C)Nc2ncnc3[nH]cnc23)cc(Cl)c(C)c1-c1ccnn1C (stereo not drawn) [Example 21, N-{1-[5-chloro-2-methoxy-4-methyl-3-(1-methyl-1H-pyrazol-5-yl)phenyl]ethyl}-9H-purin-6-amine] | < 50 | < 100 |
| Cc1c(Cl)cc(C(C)Nc2ncnc3[nH]cnc23)c(-c2cc(F)cc(F)c2)c1N1CCCC1=O (stereo not drawn) [Example 6, 1-{4-Chloro-3′,5′-difluoro-3-methyl-6-[1-(9H-purin-6-ylamino)ethyl]biphenyl-2-yl}pyrrolidin-2-one trifluoroacetate] | < 50 | < 100 |
| COc1c(C(C)Nc2ncnc3[nH]cnc23)cc(Cl)c(C)c1-c1cccc(CC#N)c1 (stereo not drawn) [Example 46, {3′-chloro-6′-methoxy-2′-methyl-5′-[1-(9H-purin-6-ylamino)ethyl]biphenyl-3-yl}acetonitrile] | < 50 | < 100 |
| Cc1c(Cl)cc(C(C)Nc2ncnc3[nH]cnc23)c(-c2cccc(F)c2)c1-c1cn[nH]c1 (stereo not drawn) [Example 72, N-{1-[4-Chloro-3′-fluoro-5-methyl-6-(1H-pyrazol-4-yl)biphenyl-2-yl]ethyl}-9H-purin-6-amine trifluoroacetate] | < 50 | < 100 |
| COc1c(C(C)Nc2ncnc3[nH]cnc23)cc(Cl)c(C)c1-c1c(C)noc1C (stereo not drawn) [Example 22, N-{1-[5-chloro-3-(3,5-dimethylisoxazol-4-yl)-2-methoxy-4-methylphenyl]ethyl]-9H-purin-6-amine] | < 50 | < 100 |
| COc1c(C(C)Nc2ncnc3[nH]cnc23)cc(Cl)c(C)c1C1CCN(C)CC1 (stereo not drawn) [Example 176, N-{1-[5-Chloro-2-methoxy-4-methyl-3-(1-methylpiperidin-4-yl)phenyl]ethyl}-9H-purin-6-amine] | < 50 | < 100 |
| COCc1ccc(-c2c(C)c(Cl)cc(C(C)Nc3ncnc4[nH]cnc34)c2OC)cc1 (stereo not drawn) [Example 42, N-{1-[5-chloro-2-methoxy-4′-(methoxymethyl)-6-methylbiphenyl-3-yl]ethyl}-9H-purin-6-amine] | < 50 | 100 to 500 |
| COc1c(C(C)Nc2ncnc3[nH]cnc23)cc(Cl)c(C)c1-c1ccc(N2CCOCC2)nc1 (stereo not drawn) [Example 48, N-{1-[5-chloro-2-methoxy-4-methyl-3-(6-morpholin-4-ylpyridin-3-yl)phenyl]ethyl}-9H-purin-6-amine] | < 50 | < 100 |
| COc1c(C(C)Nc2ncnc3[nH]cnc23)cc(Cl)c(Cl)c1C1CN(C)C1 (stereo not drawn) [Example 199, N-{1-[4,5-Dichloro-2-methoxy-3-(1-methylazetidin-3-yl)phenyl]ethyl}-9H-purin-6-amine] | < 50 | < 100 |
| COc1c(C(C)Nc2ncnc3[nH]cnc23)cc(Cl)c(C)c1-c1cnc(F)c(C)c1 (stereo not drawn) [Example 87, N-{1-[5-chloro-3-(6-fluoro-5-methylpyridin-3-yl)-2-methoxy-4-methylphenyl]ethyl}-9H-purin-6-amine] | < 50 | < 100 |
| Cc1c(Cl)cc(C(C)Nc2ncnc3[nH]cnc23)c(-c2ccccc2)c1-c1cnc(N(C)C)nc1 (stereo not drawn) [Example 15, N-(1-{4-chloro-6-[2-(dimethylamino)pyrimidin-5-yl]-5-methylbiphenyl-2-yl}ethyl)-9H-purin-6-amine] | < 50 | < 100 |
| COc1c(C(C)Nc2ncnc3[nH]cnc23)cc(Cl)c(Cl)c1C1CN(C(C)=O)C1 (stereo not drawn) [Example 195, N-{1-[3-(1-Acetylazetidin-3-yl)-4,5-dichloro-2-methoxyphenyl]ethyl}-9H-purin-6-amine] | < 50 | < 100 |
| CCOc1cccc(-c2c(C)c(Cl)cc(C(C)Nc3ncnc4[nH]cnc34)c2OC)c1 (stereo not drawn) [Example 91, N-[1-(5-chloro-3′-ethoxy-2-methoxy-6-methylbiphenyl-3-yl)ethyl]-9H-purin-6-amine] | 50 to 100 | > 1000 |
| CC(=O)Nc1ccc(-c2c(C)c(Cl)cc(C(C)Nc3ncnc4[nH]cnc34)c2-c2cc(F)cc(F)c2)cc1 (stereo not drawn) [Example 83, N-{5′-chloro-3″,5″-difluoro-6′-methyl-3′-[1-(9H-purin-6-ylamino)ethyl]-1,1′:2′,1″-terphenyl-4-yl}acetamide] | < 50 | < 100 |
| Cc1c(Cl)cc(C(C)Nc2ncnc3[nH]cnc23)c(-c2ccccc2)c1-c1cnc(N)nc1 (stereo not drawn) [Example 17, N-{1-[6-(2-aminopyrimidin-5-yl)-4-chloro-5-methylbiphenyl-2-yl]ethyl}-9H-purin-6-amine] | < 50 | < 100 |
| CC(=O)Nc1ccc(-c2c(C)c(Cl)cc(C(C)Nc3ncnc4[nH]cnc34)c2-c2ccccc2)cc1 (stereo not drawn) [Example 26, N-{5′-chloro-6′-methyl-3′-[1-(9H-purin-6-ylamino)ethyl]-1,1′:2′,1″-terphenyl-4-yl}acetamide] | < 50 | < 100 |
| COc1c(C(C)Nc2ncnc3[nH]cnc23)cc(Cl)c(C)c1-c1cccc(C(=O)N(C)C)n1 (stereo not drawn) [Example 177, 6-{3-chloro-6-methoxy-2-methyl-5-[1-(9H-purin-6-ylamino)ethyl]phenyl}-N,N-dimethylpyridine-2-carboxamide bis(2,2,2-trifluoroacetate)] | < 50 | < 100 |
| COc1c(C(C)Nc2ncnc3[nH]cnc23)cc(Cl)c(C)c1-c1cc(F)cc(C(N)=O)c1 (stereo not drawn) [Example 110, 3′-chloro-5-fluoro-6′-methoxy-2′-methyl-5′-[1-(9H-purin-6-ylamino)ethyl]biphenyl-3-carboxamide] | < 50 | 100 to 500 |
| COc1c(C(C)Nc2ncnc3[nH]cnc23)cc(Cl)c(Cl)c1C1CN(CCC(F)(F)F)C1 (stereo not drawn) [Example 205, N-(1-{4,5-Dichloro-2-methoxy-3-[1-(3,3,3-trifluoropropyl)azetidin-3-yl]phenyl}ethyl)-9H-purin-6-amine] | < 50 | < 100 |
| COCc1cccc(-c2c(C)c(Cl)cc(C(C)Nc3ncnc4[nH]cnc34)c2OC)c1 (stereo not drawn) [Example 44, N-{1-[5-chloro-2-methoxy-3′-(methoxymethyl)-6-methylbiphenyl-3-yl]ethyl}-9H-purin-6-amine] | < 50 | 100 to 500 |
| Cc1c(Cl)cc(C(C)Nc2ncnc3[nH]cnc23)c(-c2ccccc2)c1-c1cc(F)nc(F)c1 (stereo not drawn) [Example 13, N-{1-[4-chloro-6-(2,6-difluoropyridin-4-yl)-5-methylbiphenyl-2-yl]ethyl}-9H-purin-6-amine] | < 50 | < 100 |
| Cc1c(Cl)cc(C(C)Nc2ncnc3[nH]cnc23)c(-c2cc(F)cc(F)c2)c1-c1cn[nH]c1 (stereo not drawn) [Example 106, N-{1-[4-Chloro-3′,5′-difluoro-5-methyl-6-(1H-pyrazol-4-yl)biphenyl-2-yl]ethyl}-9H-purin-6-amine] | < 50 | < 100 |
| CCOc1c(C(C)Nc2ncnc3[nH]cnc23)cc(Cl)c(C#N)c1-c1ccc(C(C)O)nc1 (stereo not drawn) [Example 180, 6-chloro-3-ethoxy-2-[6-(1-hydroxyethyl)pyridin-3-yl]-4-[1-(9H-purin-6-ylamino)ethyl]benzonitrile bis(2,2,2-trifluoroacetate)] | < 50 | < 100 |
| COc1c(C(C)Nc2ncnc3[nH]cnc23)cc(Cl)c(Cl)c1C1CN(CCCC(F)(F)F)C1 (stereo not drawn) [Example 203, N-(1-{4,5-Dichloro-2-methoxy-3-[1-(4,4,4-trifluorobutyl)azetidin-3-yl]phenyl}ethyl)-9H-purin-6-amine] | < 50 | < 100 |
| COc1c(C(C)Nc2ncnc3[nH]cnc23)cc(Cl)c(C)c1-c1ccnc(F)c1 (stereo not drawn) [Example 84, N-{1-[5-chloro-3-(2-fluoropyridin-4-yl)-2-methoxy-4-methylphenyl]ethyl}-9H-purin-6-amine] | < 50 | < 100 |
| COc1c(C(C)Nc2ncnc3[nH]cnc23)cc(Cl)c(C)c1-c1ccc(F)c(Cl)c1 (stereo not drawn) [Example 89, N-[1-(3′,5-dichloro-4′-fluoro-2-methoxy-6-methylbiphenyl-3-yl)ethyl]-9H-purin-6-amine] | 50 to 100 | 500 to 1000 |
| COc1ccc(-c2c(C)c(Cl)cc(C(C)Nc3ncnc4[nH]cnc34)c2OC)cc1OC (stereo not drawn) [Example 96, N-[1-(5-chloro-2,3′,4′-trimethoxy-6-methylbiphenyl-3-yl)ethyl]-9H-purin-6-amine] | < 50 | < 100 |
| Cc1c(Cl)cc(C(C)Nc2ncnc3[nH]cnc23)c(-c2cc(F)cc(F)c2)c1-c1ccncc1 (stereo not drawn) [Example 76, N-[1-(4-Chloro-3′,5′-difluoro-5-methyl-6-pyridin-4-ylbiphenyl-2-yl)ethyl]-9H-purin-6-amine bis(trifluoroacetate)] | < 50 | < 100 |
| COC(=O)N(C(=O)OC)c1c(C)c(Cl)cc(C(C)Nc2ncnc3[nH]cnc23)c1-c1cccc(F)c1 (stereo not drawn) [Example 10, Dimethyl {4-chloro-3′-fluoro-3-methyl-6-[1-(9H-purin-6-ylamino)ethyl]biphenyl-2-yl}imidodicarbonate] | < 50 | 100 to 500 |
| CCOc1ccc(-c2c(C)c(Cl)cc(C(C)Nc3ncnc4[nH]cnc34)c2OC)cc1F (stereo not drawn) [Example 39, N-[1-(5-chloro-4′-ethoxy-3′-fluoro-2-methoxy-6-methylbiphenyl-3-yl)ethyl]-9H-purin-6-amine] | 100 to 250 | > 1000 |
